Structures can show the parent of a compound that is named as a salt. Where two headings read alike, the source gives them in different places. Each block holds one compound with its values, some of them ahead of it.
How the values were obtained:
[1] = biological target: T1, endogenous CGRP receptors in SK-N-MC cells (Homo sapiens, UniProt O60894+Q16602); assay: Action on the formation of cAMP in the human neuroblastoma cell line SK-N-MC; type: cell-based; settings: at 1 nM CGRP, compounds used in 10 μM concentrations
T1 construct: host or cells: SK-N-MC human neuroblastoma cells
Excerpt: The corresponding description is hereby introduced as a reference and is deemed to be part of the disclosure.

CGRP1 receptors = biological target: T2, CGRP1 receptors (Cavia porcellus, UniProt H0UV86+Q8R4C6); assay: CGRP receptor affinity on isolated, spontaneously beating guinea pig atrium
T2 sequence (H0UV86 23-464): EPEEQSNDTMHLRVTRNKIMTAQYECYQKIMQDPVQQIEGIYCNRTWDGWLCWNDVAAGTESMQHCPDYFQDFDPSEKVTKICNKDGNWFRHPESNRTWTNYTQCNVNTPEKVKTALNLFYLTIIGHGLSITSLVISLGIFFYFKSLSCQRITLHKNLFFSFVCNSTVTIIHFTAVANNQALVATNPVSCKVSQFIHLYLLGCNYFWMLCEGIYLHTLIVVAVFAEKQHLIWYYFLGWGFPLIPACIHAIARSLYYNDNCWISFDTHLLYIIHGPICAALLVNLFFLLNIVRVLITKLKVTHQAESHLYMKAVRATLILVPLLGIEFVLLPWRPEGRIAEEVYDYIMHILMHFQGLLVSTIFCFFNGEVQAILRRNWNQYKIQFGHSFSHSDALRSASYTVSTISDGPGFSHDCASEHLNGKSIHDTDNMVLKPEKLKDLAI
T2 sequence (Q8R4C6 27-148): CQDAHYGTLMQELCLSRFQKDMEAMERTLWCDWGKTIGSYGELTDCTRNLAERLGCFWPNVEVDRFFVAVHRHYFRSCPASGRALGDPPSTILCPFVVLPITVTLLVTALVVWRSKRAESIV
Experimental: J. Physiol. Pharmacol. 75: 671–6,1997. The corresponding literature description is hereby introduced as a reference and is deemed to be part of the disclosure.
The exposure time for each concentration level is 2 minutes.
The validation and investigation of the substituted cyclopentene compounds according to the invention for their antagonistic action proceeded in accordance with the above-described method.

[2] = biological target: T3, human calcitonin receptor-related receptor (CRLR) and human RAMP1 (Homo sapiens, UniProt O60894+Q16602); assay: GTPγS assay: CGRP-induced [35S]GTPγS incorporation into CHO-K1 membranes; type: biochemical
T3 construct: purchased Euroscreen, Brussels, Belgium; host or cells: CHO-K1 cells (transfected), membranes
Experimental: The antagonistic action of the substituted cyclopentene compounds according to the invention was determined using this assay.
To this end, membranes from CHO-K1 cells (Euroscreen, Brussels, Belgium), which are transfected with the human calcitonin receptor-related receptor (CRLR, Genbank: U17473) and human receptor-associated modifying protein type 1 (RAMP1, Genbank AJ001014), are first of all rapidly thawed, diluted in 20 mM HEPES, 10 mM NaCl, 10 mM MgCl2, 1 mM EDTA pH 7.4 and resuspended by homogenisation. […] After 30 minutes' incubation at room temperature, 50 μl of 2 nM [35S]GTPγS (Amersham) are added and incubated for a further 30 minutes at room temperature and the assay-plate is centrifuged for 10 minutes at 3200 revolutions per minute. Bound activity was determined with a Wallac 1450 Microbeta Scintillation Counter (Wallac, Torku, Finland).
The inhibition of CGRP-induced incorporation of [^35S]GTPγS into membranes was determined in accordance with the above-described method.

[3] = biological target: T4, recombinant human CGRP1 receptor (CRLR and RAMP1) (Homo sapiens, UniProt O60894+Q16602); assay: Inhibition of binding of 3-[125I]-iodohistidyl10-α-CGRP to the human CGRP1 receptor (SPA); settings: read-out: Inhibition in % of binding of 3-[125I]-iodohistidyl10 CGRP; at a concentration of 10 μM of the particular compound
T4 construct: purchased Euroscreen, Belgium ES420-M9; host or cells: CHO-K1 cell membranes
Experimental: (A) Investigation of the Inhibition of Binding of [^125I]-α-CGRP to the Human CGRP1 Receptor
Various CGRP receptor subtypes are known which in each case consist of a complex of CRLR (Calcitonin Receptor-Like Receptor), RAMP (Receptor-Associated Membrane Protein) and RCP (Receptor Component Protein).
Investigation of the inhibition of the binding of 3-[^125I]-iodohistidyl^10-α-CGRP is carried out on a human CGRP1 receptor, which is composed of the recombinant human constituents (Calcitonin Receptor-Like Receptor) CRLR and (Receptor-Associated Membrane Protein) RAMP1 (item no. ES420-M9, Euroscreen, Belgium).
The radioligand used is 3-[^125I]-iodohistidyl^10 Calcitonin Gene-Related Peptide (Amersham pharmacia biotech, code IM 184, 2000 Ci/mmol).
The binding studies are performed as SPA (scintillation proximity assay) batches with WGA beads (wheat germ agglutinin, Amersham pharmacia biotech, code: RPNQ 0001). The incubation buffer used is 50 mm tris pH 7.4 with 120 mM NaCl, 5 mM KCl and 5 mM MgCl2. 0.25 μg of protein of membrane suspension of CHO-K1 cells, 250 μg of beads and 10 μg of albumin (BSA) and the above-stated radioligand in a concentration of […] together with the compound according to the invention to be investigated in a concentration of 10 μM are introduced into each well of a microtitre plate.
After an incubation period of 90 minutes, radioactivity is measured in a Trilux detector (Wallac, Finland).
The inhibition of binding of 3-[^125I]-iodohistidyl^10 Calcitonin Gene-Related Peptide to the recombinant human CGRP1 receptor was determined in accordance with the method described above.

[4] = read-out: IC50 value for CGRP-antagonistic action, isolated guinea pig atria stimulated by h-α-CGRP

T3 sequence (Q16602 23-461): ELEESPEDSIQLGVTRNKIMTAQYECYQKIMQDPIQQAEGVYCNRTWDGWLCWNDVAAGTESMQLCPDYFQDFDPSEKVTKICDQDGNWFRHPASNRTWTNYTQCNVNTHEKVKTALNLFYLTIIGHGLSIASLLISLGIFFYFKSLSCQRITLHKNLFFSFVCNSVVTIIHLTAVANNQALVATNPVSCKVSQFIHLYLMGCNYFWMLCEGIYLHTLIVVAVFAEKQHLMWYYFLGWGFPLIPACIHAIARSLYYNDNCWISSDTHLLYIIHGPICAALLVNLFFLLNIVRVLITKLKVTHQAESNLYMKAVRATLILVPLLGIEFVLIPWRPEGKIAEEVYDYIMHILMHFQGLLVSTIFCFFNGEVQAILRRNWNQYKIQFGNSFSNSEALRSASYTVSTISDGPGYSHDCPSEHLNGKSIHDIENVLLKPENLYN
T3 sequence (O60894 27-148 partner): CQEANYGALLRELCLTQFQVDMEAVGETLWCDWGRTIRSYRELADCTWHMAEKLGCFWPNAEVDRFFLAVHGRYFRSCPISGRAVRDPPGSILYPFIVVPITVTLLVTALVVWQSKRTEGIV
T1 sequence (Q16602 23-461): as the sequence (Q16602 23-461) above
T1 sequence (O60894 27-148 partner): as the sequence (O60894 27-148 partner) above
T4 sequence (Q16602 23-461): as the sequence (Q16602 23-461) above
T4 sequence (O60894 27-148 partner): as the sequence (O60894 27-148 partner) above

- melting point: 182 to 184 °C
Compound: CN(C)CC1CC(c2ccc(S(C)(=O)=O)cc2)=C(c2ccc(C(C)(C)C)cc2)C1=O.Cl (stereo not drawn)

- melting point: 156 to 158 °C
Compound: CN(C)CC1CC(c2ccc(S(C)(=O)=O)cc2)=C(c2cccc(Cl)c2)C1=O.Cl (stereo not drawn)

- melting point: 149 to 152 °C
Compound: CN(C)CC1CC(c2ccc(S(C)(=O)=O)cc2)=C(c2ccc3c(c2)OCO3)C1=O.Cl (stereo not drawn)

- melting point: 127 to 129 °C
Compound: Cc1ccc(C2=C(c3ccc(S(C)(=O)=O)cc3)CC(CN(C)C)C2=O)cc1.Cl (stereo not drawn)

- melting point: 160 to 163 °C
Compound: CN(C)CC1CC(c2ccc(S(C)(=O)=O)cc2)=C(c2cc(Cl)cc(Cl)c2)C1=O.Cl (stereo not drawn)

Compound: CN(C)CC1CC(c2ccc(S(C)(=O)=O)cc2)=C(c2cccc(F)c2)C1=O.Cl (stereo not drawn) [Example 5, 5-Dimethylaminomethyl-2-(3-fluorophenyl)-3-(4-methanesulfonylphenyl)-cyclopent-2-enone, hydrochloride]
- Inhibition of cAMP formation [1]: 82%
- IC50 (CGRP1 receptors; [4]): 25 µM
- inhibition at 12.5 µM [2]: 62.4%
- melting point: 154 to 158 °C
- inhibition at 10 µM [3]: 58%

- melting point: 149 to 151 °C
Compound: CCOc1cccc(C2=C(c3ccc(S(C)(=O)=O)cc3)CC(CN(C)C)C2=O)c1.Cl (stereo not drawn)

- Reduction in the increase in the frequency of beating of the atria stimulated by h-α-CGRP (in words) (CGRP1 receptors; concentrations of 30, 100 and 300 nM): concentration-dependent reduction
- IC50 (CGRP1 receptors; validation experiment, isolated guinea pig atria, read-out: IC50 (semimaximal action), reduction of h-α-CGRP-stimulated increase in frequency of beating): 0.019 µM
Compound: h-α-CGRP(8-37): human α-CGRP(8-37), CGRP1-antagonistic fragment used to validate the guinea pig atrium model [reference compound]

- melting point: 157 to 159 °C
Compound: CN(C)CC1CC(c2ccc(S(C)(=O)=O)cc2)=C(c2ccc(S(C)(=O)=O)cc2)C1=O.Cl (stereo not drawn)

- melting point: 131 to 133 °C
Compound: CC(C)c1cccc(C2=C(c3ccc(S(C)(=O)=O)cc3)CC(CN(C)C)C2=O)c1.Cl (stereo not drawn)

- melting point: 163 to 165 °C
Compound: CN(C)CC1CC(c2ccc(S(C)(=O)=O)cc2)=C(c2ccc3ccccc3c2)C1=O.Cl (stereo not drawn)

Compound: COc1cccc(C2=C(c3ccc(S(C)(=O)=O)cc3)CC(CN(C)C)C2=O)c1.Cl (stereo not drawn) [Example 13, 5-Dimethylaminomethyl-3-(4-methanesulfonylphenyl)-2-(3-methoxyphenyl)-cyclopent-2-enone, hydrochloride]
- Inhibition of cAMP formation [1]: 88%
- IC50 (CGRP1 receptors; [4]): 32 µM
- inhibition at 12.5 µM [2]: 63.9%
- melting point: 154 to 157 °C
- inhibition at 10 µM [3]: 60%

- melting point: 95 to 98 °C (dec.)
Compound: Cc1cc(C2=C(c3ccc(S(C)(=O)=O)cc3)CC(CN(C)C)C2=O)ccc1F.Cl (stereo not drawn)

- melting point: 139 to 142 °C
Compound: Cc1ccc(C2=C(c3ccc(S(C)(=O)=O)cc3)CC(CN(C)C)C2=O)cc1C.Cl (stereo not drawn)

- inhibition at 10 µM [3]: 26%
Compound: CN(C)CC1CC(c2ccc(S(C)(=O)=O)cc2)=C(c2ccc(C(C)(C)C)cc2)C1O (stereo not drawn) [Example 21, 2-(4-tert-Butylphenyl)-5-dimethylaminomethyl-3-(4-methanesulfonylphenyl)-cyclopent-2-enol, hydrochloride]

Compound: CN(C)CC1CC(c2ccc(S(C)(=O)=O)cc2)=C(c2cccc(O)c2)C1=O.Cl (stereo not drawn) [Example 3, 5-Dimethylaminomethyl-2-(3-hydroxyphenyl)-3-(4-methanesulfonylphenyl)-cyclopent-2-enone, hydrochloride]
- Inhibition of cAMP formation [1]: 86%
- IC50 (CGRP1 receptors; [4]): 77 µM
- inhibition at 12.5 µM [2]: 65.1%
- melting point: 162 to 164 °C
- inhibition at 10 µM [3]: 66%

- melting point: 98 to 100 °C
Compound: CN(C)CC1CC(c2ccc(S(C)(=O)=O)cc2)=C(c2ccc(O)cc2)C1=O.Cl (stereo not drawn)

Compound: CN(C)CC1CC(c2ccc(S(C)(=O)=O)cc2)=C(c2cc(F)cc(F)c2)C1=O.Cl (stereo not drawn) [Example 1, 2-(3,5-Difluorophenyl)-5-dimethylaminomethyl-3-(4-methanesulfonylphenyl)-cyclopent-2-enone, hydrochloride]
- Inhibition of cAMP formation [1]: 71%
- IC50 (CGRP1 receptors; [4]): 13 µM
- inhibition at 12.5 µM [2]: 65.1%
- inhibition at 10 µM [3]: 40%

- melting point: 152 to 154 °C
Compound: CN(C)CC1CC(c2ccc(S(C)(=O)=O)cc2)=C(c2cccc(C(F)(F)F)c2)C1=O.Cl (stereo not drawn)

- melting point: 148 to 150 °C
Compound: Cc1cccc(C2=C(c3ccc(S(C)(=O)=O)cc3)CC(CN(C)C)C2=O)c1.Cl (stereo not drawn)
